# Reference: patent US20250179589A1, “SYNTHETIC LETHALITY AND THE TREATMENT OF CANCER” (PACYLEX PHARMACEUTICALS INC., priority 2012, published 2025)
# Residues, ends and D or L forms follow the SMILES beside them. *: point of attachment. Cbz = O=C(OCc1ccccc1)*
# Assays:
# [1] = tested on: NMT2 levels in BL cells (Ramos, BL2); assay: Western blot of protein levels after SAHA treatment; assay type: cell-based, human; conditions: 1 μM, 24 h
# Protocol: (§1) IM9, BL2 and Ramos cells were plated at 3×10^6 cells per well in a 6-well dish and treated with 1 μM suberoylanilide hydroxamic acid (SAHA), which is a reversible inhibitor of class I and class II histone deacetylases (HDACs), for 24 hours. Equal amount of DMSO was added to cells as a control. Cells were lysed and subjected to SDS-PAGE/Western blot analyses.
# (§2) To test whether the reduction in mRNA NMT2 was due to chromatin silencing, we treated “normal” B cells (IM9) and malignant BL cells with suberoylanilide hydroxamic acid (SAHA) (also named vorinostat), a class I and class II histone deacetylase inhibitor, for 24 hours and monitored the levels of NMT1 and NMT2 by western blot. In particular, “Normal” B cells (IM9) and malignant BL cells (Ramos, BL2) treated with 1 μM SAHA (HDAC class I/II inhibitor) for 24 h. Cells were then lysed, subjected to SDS-PAGE and western blotting was performed with NMT1, NMT2, p21/WAF1 and GAPDH antibodies.
# [2] = tested on: p21/WAF1 levels in IM9, Ramos, BL2 cells; assay: as above; assay type: cell-based, human; conditions: all cells, 1 μM, 24 h
# Protocol: as §1, §2
# [3] = tested on: NMT1 levels in IM9, Ramos, BL2 cells; assay: as above; assay type: cell-based, human; conditions: 1 μM, 24 h
# Protocol: as §1, §2
# [4] = tested on: Mcl-1 levels in IM9, KMH2, Ramos, BL2 cells; assay: Western blot of protein levels after MG-132 treatment; assay type: cell-based, human; conditions: all cell types, 10 μM, 5 h
# Protocol: (§3) IM9, KMH2, BL2 and Ramos cells were plated (3×10^6 cells per well in a 6-well dish) and treated with 10 μM MG-132 for 5 hours. Equal amount of DMSO was added to the control samples. Cells were then lysed and subjected to SDS-PAGE/Western blot analyses.
# (§4) In this example, in FIG. 26, it is shown that proteosomal degradation is not the cause of NMT2 depletion in BL cells. In these experiments, “Normal” immortalized B lymphocytes (IM9) and malignant B lymphoma cells [Hodgkin's lymphoma (KMH2) and BL (Ramos, BL2)] treated with 10 μM of proteosomal inhibitor (MG-132) for 5 h. Western blotting was performed on cell lysates to monitor levels of NMT1, NMT2, Mcl-1, and GAPDH.
# (§5) To investigate whether NMT2's degradation was increased as a result of a destabilizing mutation or the presence of an unknown factor that could destabilize NMT2 in cancer cells, we treated normal and malignant lymphocytes with the proteosomal degradation inhibitor MG-132 for 5 h. Cell lysates were subjected to western blotting to analyze the presence of NMT1, NMT2 and myeloid cell leukemia-1 protein (Mcl-1), which was used as a control to check the effectiveness of MG-132 since it is subject to proteosomal degradation.
# [5] = tested on: NMT2 levels in BL cells (Ramos, BL2); assay: as above; assay type: cell-based, human; conditions: 10 μM, 5 h
# Protocol: as §3, §4, §5
# [6] = tested on: Ramos (Burkitt's lymphoma) cells; assay: Trypan blue exclusion cell viability assay; assay type: cell-based, human; conditions: 24 hours, compared with L0 and CEM cells
# Protocol: (§6) Cell viability assay. B and T cell viability was measured using the trypan blue exclusion method. Cells were grown in confluency conditions (2×10^6 cells/mL maximum) assuring the minimum basal apoptosis. […] Cell viability was quantified using the TC10™ automated cell counter (Biorad).
# (§7) The drugs were dissolved in DMSO to make 100× stock solutions for each concentration tested, so that the final volume of DMSO in each well was 1%.
# (§8) Cell viability was then quantified using the TC10™ automated cell counter (Biorad).
# [7] = tested on: BL-2 (Burkitt's lymphoma) cells; assay: Trypan blue exclusion cell viability assay; assay type: cell-based, human; conditions: BL-2, 24 hours, compared with L0 and CEM cells
# Protocol: as §6, §7, §8
# NMT2 = target: T1, NMT2 (Homo sapiens, UniProt O60551); assay: In vitro NMT activity (peptide myristoylation) assay; assay type: biochemical
# T1 construct: We generated His-tagged full-length (His-NMT1 and His-NMT2) and caspase truncated (His-73NMT1, His-26NMT2 and His-68NMT2) human NMT vectors; His6 (N); made in house; host or cells: E. coli Lemo21(DE3) pLysS
# Text: (§9) In vitro NMT activity assay. N-myristoyltransferase activity assay protocol was adapted from Raju, R. V., and Sharma, R. K. (1999) Preparation and assay of myristoyl-CoA:protein N-myristoyltransferase. Methods Mol Biol 116, 193-211. [^3H] myristoyl-CoA was freshly synthesized for each experiment, as previously described by Towler, D., and Glaser, L. (1986) Protein fatty acid acylation: enzymatic synthesis of an N-myristoylglycyl peptide. Proc Nat Acad Sci USA 83, 2812-2816. Briefly, cells were resuspended in 0.25 M sucrose buffer (50 mM NaH2PO4, pH 7.4) and subjected to 2 rounds of sonication at level 6.0 on a Branson Sonicator. Reaction mixture is composed of 10 μL of cell extract (about 20 μg of proteins) incubated in NMT activity buffer (0.26M Tris-HCl, 3.25 mM EGTA, 2.92 mM EDTA and 29.25 mM 2-mercaptoethanol, 1% Triton X-100, pH 7.4) and myristoylable or non-myristoylable decapeptide corresponding to the N-terminal sequence of truncated-Bid (0.1 mM dissolved in water). Reaction was started by the addition of 7.4 μL (≈10 pMol) of freshly synthesized [^3H] myristoyl-CoA (final mixture volume=25 μL) and incubated for 15 min at 30° C. The reaction is stopped by spotting 15 μL of the reaction mixture on a P81 phosphocellulose paper disc (Whatman, Kent, UK) and dried for 30 seconds. Discs were washed (washing buffer: 25 mM Tris buffer, pH 7.4) to remove the residual radioactivity ([^3H]-myristate and [^3H]-myristoyl-CoA) while [^3H]-myristoyl-peptide is retained on the phosphocellulose paper. Radioactivity was quantified by liquid scintillation counting and converted into pMol of myristoylated peptide (Raju, R. V., and Sharma, R. K. (1999) Preparation and assay of myristoyl-CoA:protein N-myristoyltransferase. Methods Mol Biol 116, 193-211
# (§10) NMT activity was assayed using a peptide myristoylation assay with purified recombinant NMT1 and NMT2. NMT activity was calculated from the amount of radiolabeled myristoylpeptide produced and detected on phosphocellulose paper (adapted from King et al. 1991, Anal Biochem.).
# (§11) In this example, in FIG. 10, the sensitivity of various immortalized normal LO B lymphocytes (obtained from Dr. Riabowol, U. of Calgary), malignant B lymphoma cells (Ramos and BL2), and, T cell leukemia (CEM) is shown to the NMT inhibitor TrisDBA for 24 hours (A) Residual viability of various cell lines treated with TrisDBA for 24 hours (n=9) (B) Effect of TrisDBA on N-myristoyltransferase activity in COS7 cells transiently expressing NMT1 or NMT2 incubated for 24 h with TrisDBA. In vitro the IC50 for TrisDBA is approximately 2 μM for NMT1 and 5 μM for NMT2.
# NMT1 = target: T2, NMT1 (Homo sapiens, UniProt P30419); assay: as above; assay type: biochemical
# T2 construct: We generated His-tagged full-length (His-NMT1 and His-NMT2) and caspase truncated (His-73NMT1, His-26NMT2 and His-68NMT2) human NMT vectors; His6 (N); made in house; host or cells: E. coli Lemo21(DE3) pLysS
# Text: as §9, §10, §11
# [8] = tested on: Ramos B lymphoma cells transfected with pcDNA3.1-V5-NMT2; assay: Survival of NMT2-transfected Ramos cells, trypan blue exclusion; assay type: cell-based, human; conditions: TrisDBA 5 ug/ml, 24 hours
# Protocol: as §6
# T1 sequence (O60551 whole entry, the tested form may be a part): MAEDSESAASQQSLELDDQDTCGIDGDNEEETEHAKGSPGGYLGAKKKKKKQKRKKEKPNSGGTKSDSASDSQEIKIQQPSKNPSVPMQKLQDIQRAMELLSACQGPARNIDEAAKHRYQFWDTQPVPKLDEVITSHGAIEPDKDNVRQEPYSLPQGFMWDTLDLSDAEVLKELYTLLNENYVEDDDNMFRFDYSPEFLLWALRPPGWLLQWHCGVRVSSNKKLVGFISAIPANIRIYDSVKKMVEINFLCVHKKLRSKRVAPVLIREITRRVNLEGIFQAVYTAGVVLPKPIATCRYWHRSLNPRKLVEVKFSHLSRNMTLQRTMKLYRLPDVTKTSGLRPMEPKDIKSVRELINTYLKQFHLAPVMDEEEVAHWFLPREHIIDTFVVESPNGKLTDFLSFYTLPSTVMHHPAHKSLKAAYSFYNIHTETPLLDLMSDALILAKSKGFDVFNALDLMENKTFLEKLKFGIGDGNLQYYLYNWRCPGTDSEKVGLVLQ
# T2 sequence (P30419 whole entry, the tested form may be a part): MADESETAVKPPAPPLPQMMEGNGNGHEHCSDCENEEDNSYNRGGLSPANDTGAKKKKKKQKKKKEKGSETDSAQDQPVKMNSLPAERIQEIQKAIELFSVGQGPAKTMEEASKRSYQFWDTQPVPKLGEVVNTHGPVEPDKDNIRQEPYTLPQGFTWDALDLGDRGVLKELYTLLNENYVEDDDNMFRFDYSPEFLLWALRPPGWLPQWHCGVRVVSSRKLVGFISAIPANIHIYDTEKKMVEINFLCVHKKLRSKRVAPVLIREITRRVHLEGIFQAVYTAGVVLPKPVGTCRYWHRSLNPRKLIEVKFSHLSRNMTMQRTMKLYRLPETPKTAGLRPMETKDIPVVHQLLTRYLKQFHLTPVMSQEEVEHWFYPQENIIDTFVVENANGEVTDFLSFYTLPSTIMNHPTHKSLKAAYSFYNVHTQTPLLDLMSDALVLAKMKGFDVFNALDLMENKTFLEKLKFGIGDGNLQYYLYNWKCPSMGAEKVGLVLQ
compound,measurement,setting,value
"O=C(CCCCCCC(=O)Nc1ccccc1)NO [SAHA, suberoylanilide hydroxamic acid]",NMT2 levels,[1],increased NMT2 levels
same,p21/WAF1 levels,[2],increased p21/WAF1 levels
same,NMT1 levels,[3],remained relatively unchanged
CC(C)C[C@@H](C=O)NC(=O)[C@H](CC(C)C)NC(=O)[C@H](CC(C)C)NC(=O)OCc1ccccc1 [MG-132] (Cbz-Leu-Leu-Leu-aldehyde),Mcl-1 levels,[4],increased levels of Mcl-1
same,NMT2 levels,[5],did not increase
tris-dibenzylideneacetone-dipalladium [TrisDBA],sensitivity (residual viability),[6],more sensitive
same,sensitivity (residual viability),[7],more sensitive
same,IC50,"NMT2; NMT2, in vitro",~5 µM
same,inhibition of NMT activity,NMT2; purified recombinant NMT2,inhibits NMT in vitro
same,IC50,"NMT1; NMT1, in vitro",~2 µM
same,inhibition of NMT activity,NMT1; purified recombinant NMT1,inhibits NMT in vitro
same,increase of survival by NMT2 transfection vs control cells transfected with empty plasmid vector,[8],2.5 fold
